Test results published in patent publication US12396966B2, “Pharmaceutical compositions and oral dosage forms of ketamine derivatives” (XWPHARMA LTD., priority 2021, dated 2025).

Experiments:
[1] = humans; cited from earlier work
[2] = Preclinical pharmacokinetic studies; type: in vivo; conditions: rats
[3] = Preclinical pharmacokinetic studies; type: in vivo; conditions: mice
CYP2D6 = CYP2D6 (Homo sapiens, UniProt P10635); experiment: Preclinical studies: metabolism of compound (39) to release esketamine; type: in vitro ADME
Chain of CYP2D6 (P10635 whole entry, species assumed): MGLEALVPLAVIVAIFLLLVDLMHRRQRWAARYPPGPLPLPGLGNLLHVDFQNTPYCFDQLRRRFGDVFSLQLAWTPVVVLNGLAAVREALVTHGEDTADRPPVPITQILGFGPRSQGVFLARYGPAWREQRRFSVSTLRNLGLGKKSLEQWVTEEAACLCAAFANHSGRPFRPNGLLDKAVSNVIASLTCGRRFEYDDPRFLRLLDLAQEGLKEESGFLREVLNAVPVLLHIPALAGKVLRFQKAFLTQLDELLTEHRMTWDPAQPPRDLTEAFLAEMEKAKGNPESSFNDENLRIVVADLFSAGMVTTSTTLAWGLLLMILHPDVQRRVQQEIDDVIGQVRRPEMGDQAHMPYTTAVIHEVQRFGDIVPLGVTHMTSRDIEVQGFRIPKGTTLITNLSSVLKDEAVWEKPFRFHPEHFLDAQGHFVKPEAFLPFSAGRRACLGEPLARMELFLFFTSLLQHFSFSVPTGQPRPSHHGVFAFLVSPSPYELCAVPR

[4] = Two-stage dissolution of tablets (0.1N HCl 1 hour, then 50 mM acetate buffer pH 4.5); type: physicochemical; conditions: FIG. 2
Protocol: The two-stage dissolution profiles were obtain as described in Example 5.
A two-stage dissolution apparatus was used to measure the dissolution profile of the tablets.
In the first stage, the tablets were immersed in 0.1N HCl a dissolution medium for 1 hour.
The dissolution medium was then immediately charged to a 50 mM acetate buffer at pH 4.5 immediately following 1 hour sampling via addition of 100 mM acetate buffer with appropriate pH and continued through 18 hours.
Two-stage dissolution profiles for the tablets were obtained using a USP 1 dissolution apparatus. The tablets were first added to 500 mL of a 0.1N hydrochloric acid solution and agitated at 100 RPM for 1 hour at 37° C. Samples (1 mL) were withdrawn at 0, 0.5 and 1 hours. The acid solution was then replaced with 1,000 mL of a 50 mM pH 4.5 acetate buffer solution and the tablets agitated at 100 RPM for up to 24 hours at 37° C. Samples (1 mL) were withdrawn at 1.5, 2, 3, 4, 6, 8, 12, 16, 20, and 24 hours. Solution samples were withdrawn at intervals and the concentration of Compound (39) was measured using high pressure liquid chromatography mass spectroscopy.

[5] = Preclinical pharmacokinetic studies; type: in vivo; conditions: monkeys
CYP2C19 = CYP2C19 (Homo sapiens, UniProt P33261); experiment: Preclinical studies: metabolism of compound (39) to release esketamine; type: in vitro ADME
Chain of CYP2C19 (P33261 whole entry, species assumed): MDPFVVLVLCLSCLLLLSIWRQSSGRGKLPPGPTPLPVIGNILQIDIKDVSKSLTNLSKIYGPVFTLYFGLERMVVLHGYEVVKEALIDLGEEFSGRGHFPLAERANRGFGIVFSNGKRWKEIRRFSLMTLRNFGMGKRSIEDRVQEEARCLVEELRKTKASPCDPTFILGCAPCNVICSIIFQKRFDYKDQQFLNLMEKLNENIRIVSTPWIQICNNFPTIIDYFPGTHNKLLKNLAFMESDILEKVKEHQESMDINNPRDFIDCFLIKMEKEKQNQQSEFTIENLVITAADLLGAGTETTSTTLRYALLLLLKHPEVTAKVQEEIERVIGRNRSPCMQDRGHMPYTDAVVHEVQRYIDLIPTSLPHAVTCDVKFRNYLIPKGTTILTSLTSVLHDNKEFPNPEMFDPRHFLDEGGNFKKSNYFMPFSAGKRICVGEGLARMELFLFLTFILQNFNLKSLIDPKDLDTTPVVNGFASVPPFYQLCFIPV

[6] = Preclinical pharmacokinetic studies; type: in vivo; conditions: dogs
[7] = Preclinical pharmacokinetic studies: dose proportionality and repeated dosing; type: in vivo
CYP3A4 = CYP3A4 (Homo sapiens, UniProt P08684); experiment: Preclinical studies: metabolism of compound (39) to release esketamine; type: in vitro ADME
Chain of CYP3A4 (P08684 whole entry, species assumed): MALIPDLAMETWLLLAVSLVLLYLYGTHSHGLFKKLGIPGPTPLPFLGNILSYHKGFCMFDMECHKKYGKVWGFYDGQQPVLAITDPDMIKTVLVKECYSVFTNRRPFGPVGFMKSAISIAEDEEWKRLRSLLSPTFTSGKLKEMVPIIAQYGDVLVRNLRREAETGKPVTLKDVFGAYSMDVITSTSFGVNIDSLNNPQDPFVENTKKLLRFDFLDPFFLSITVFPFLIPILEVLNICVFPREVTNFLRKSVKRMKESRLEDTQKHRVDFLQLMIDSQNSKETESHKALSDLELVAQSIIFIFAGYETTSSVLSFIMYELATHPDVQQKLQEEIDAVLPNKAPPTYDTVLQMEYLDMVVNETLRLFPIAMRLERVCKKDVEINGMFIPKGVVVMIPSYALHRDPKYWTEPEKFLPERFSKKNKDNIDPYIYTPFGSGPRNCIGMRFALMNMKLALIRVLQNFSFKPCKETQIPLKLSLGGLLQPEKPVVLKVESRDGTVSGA

SMILES | oral bioavailability (% F) [1] | absorption and conversion to esketamine [2] | absorption and conversion to esketamine [3] | metabolism by CYP2D6 to release esketamine (CYP2D6) | effect of sodium lauryl sulfate on solubility of compound (39) ([4]; acid stage (0.1N HCl), tablets with and without sodium lauryl sulfate) | dissolution rate ([4]; pH 4.5, tablets with and without sodium lauryl sulfate) | absorption and conversion to esketamine [5] | metabolism by CYP2C19 to release esketamine (CYP2C19) | absorption and conversion to esketamine [6] | accumulation of compound (39) and its metabolites ([7]; following repeated dosing) | systemic exposure, expressed as AUC: dose proportionality ([7]; for compound (39), esketamine, and noresketamine) | metabolism by CYP3A4 to release esketamine (CYP3A4)
CNC1(c2ccccc2Cl)CCCCC1=O (stereo not drawn) [Ketamine, 2-(2-chlorophenyl)-2-(methylamino)cyclohexan-one] | about 20% | – | – | – | – | – | – | – | – | – | – | –
CC(C)[C@@H](C(=O)OCOC(=O)N(C)[C@]1(c2ccccc2Cl)CCCCC1=O)N(C)C [compound (39), ((((S)-1-(2-chlorophenyl)-2-oxocyclohexyl)(methyl)carbamoyl)oxy)methyl dimethyl-L-valinate] | – | rapid absorption and conversion to esketamine | rapid absorption and conversion to esketamine | metabolized | reduces the solubility | approximately independent of the amount of sodium lauryl sulfate | rapid absorption and conversion to esketamine | metabolized | rapid absorption and conversion to esketamine | not observed | less than to greater than dose proportional | metabolized
